Measurements published in patent US7345051B2, “Mucin synthesis inhibitors” (Genaera Corporation, priority 2000, dated 2008).
Entries after “also recorded” stand apart in the source; their conditions may differ. Values belong to the compound of their own block, whether it stands above or below them.

Tests used:
H292 clone 15 cells = conditions: 48 hours compound, Alamar Blue 2 hours; Average of 3 experiments
[1] = tested on: MUC5AC production by H292 clone 15 cells overexpressing hCLCA1; test: ELLA of MUC5AC in conditioned media of H292 clone 15 cells; type: cell-based, human; conditions: Average of 3 experiments
activated Caco2 cells = conditions: Caco-2
[2] = tested on: MUC5A/C secretion in hCLCA1 expressing H292 cells; test: MUC5A/C secretion in hCLCA1 expressing H292 cells (ELLA); type: cell-based, human; set-up: key to ELLA: + = inhibition; − = no inhibition; conditions: for ELLA: Table 2, mucin production
Muc5b = test: Inhibition of Muc5b expression; type: cell-based; set-up: key: + = inhibition; − = no inhibition; conditions: Table 2
Protocol: The effects of talniflumate derivatives on mucin production were also assayed for changes in ELLA and IC50 (Table 2) as described in the methods above.

[3] = tested on: NCI-H292/hICACC-1 (AAF 15) cells; test: AB/PAS staining of mucous glycoconjugates in NCI-H292 cells over-expressing hICACC-1; type: cell-based, human; conditions: 3 days
Protocol: NCI-H292 cells, a human pulmonary mucoepidermoid carcinoma cell line, were purchased from the American Type Culture Collection (Manassas Va.) and cultured in RPMI1640 medium supplemented with 10% FBS and 1% penicillin/streptomycin (Gibco/BRL). The cells were grown in a humidified, air-containing incubator, supplemented with 5% CO2 at 37° C. Stable NCI-H292 cell lines over-expressing hICACC-1 were established by transfection of pcDNA3-hICACC-1 using a Fujin Transfection kit according to the manufacture's instruction (Boehringer-Mannheim). A control cell line was produced, NCI-H292/ctl, by the transfection of pcDNA3 (ctl) into the NCI-H292 cell line using the same procedure. Expression of the hICACC-1 gene was confirmed for the pcDNA3-hICACC-1 transfectent by Northern analysis.
For the determination of mucous glycoconjugate production, NCI-H292/ctl and NCI-H292/hICACC-1 (AAF 15) cells were cultured in 24-well plates for 3 days. Cells were then fixed with Formalin and mucous glycoconjugates were visualized by AB/PAS staining (Sigma). […] For chloride channel blockage studies, cells were cultured in the presence of niflumic acid (NFA) (Sigma) at 100 μM concentration, mefanamic acid (MFA) at 125 or 250 μM or talniflumate at 12.5, 25 or 50 μM, or media alone.

[4] = tested on: activated Caco2 cell line; test: Viability of activated Caco2 cells treated with NFA; type: cell-based; conditions: even higher concentrations of NFA
activated LHL4 cells = test: Eotaxin production by activated LHL4 cells (ELISA); type: cell-based; conditions: increasing concentrations
Protocol: Activated LHL4 cells that express and secrete eotaxin have been produced and used to test for inhibitors of eotaxin production. These cells were assayed in vitro for eotaxin by an ELISA technique well known in the art (R&D Systems).

IL9 transgenic mice = test: Mucin production in lungs of IL9 transgenic mice, intra-tracheal treatment; type: in vivo; conditions: NFA (100 μg) IT once daily for three days
Protocol: Certified virus-free male and female IL9 transgenic mice (IL9TG5-FVB/N) 5-6 weeks of age were bred in our laboratories. Male and female FVB/N mice 5-6 weeks of age were purchased from Jackson Laboratories (Bar Harbor Me.). Animals were housed in high-efficiency, particulate filtered air and allowed free access to food and water for 3 to 7 days prior to experimental manipulation. The animal facilities were maintained at 22° C. and the light:dark cycle was automatically controlled (10:14 hour light:dark).
Animals were phenotyped, naïve, or 24 hrs after receiving intra-tracheal (IT) shame (vehicle) treatment, or drugs in the same vehicle as was used in identically treated controls. Mice were treated IT once daily for three days. NFA (100 μg) or antibody to IL-9 were administered in PBS IT. […] The up-regulation of mucus production in the IL9 transgenic is specifically associated with increased steady-state mRNA levels of MUC2 and MUC5AC as shown by RT-PCR (FIG. 9).

[5] = tested on: mice sensitized by nasal aspiration of Aspergillus fumigatus antigen; type: in vivo
[6] = tested on: B6D2F1 mice sensitized with Aspergillus fumigatus; test: Murine asthma model, Aspergillus fumigatus sensitization, Talniflumate containing mouse chow; type: in vivo; conditions: oral
MUC2 transcription = test: MUC2 promoter luciferase reporter, lipoteichoic acid induction; type: cell-based; conditions: LTA from S. aureus; FIG. 22
Protocol: MUC2 transcription was monitored as described in Li et al. (1998) Proc. Natl. Acad. Sci., USA, Vol. 95, pp. 5718-5723. Briefly, an epithelial cell line was transfected with a reporter construct containing the promoter region from the MUC2 gene cloned upstream of a luciferase reporter gene. Transfected cells were treated with serum free media (SFM) alone or, as indicated, containing lipoteichoic acid from S. aureus bacteria (LTA), adenosine (aden), or talniflumate (MSI). Cells were then lysed and luciferase enzyme activity in the lysates was measured (RLU). Talniflumate modulated the lipoteichoic acid induction of MUC2 (see FIG. 22). This is also an appropriate model for CF.

[7] = tested on: human chloride channel hICACC-1; test: Patch clamp chloride current, NCI-H292 cell expressing hICACC-1; type: cell-based; conditions: 5 micromolar talniflumate; 2 μM ionomycin and 2 mM calcium
Protocol: An NCI-H292 cell transfected with a plasmid expressing the human chloride channel hICACC-1 was patch clamped and chloride current (I) was measured over a range of voltages (V). Substantial chloride current was invoked by the addition of 2 μM ionomycin and 2 mM calcium (circles) compared to baseline (squares), indicating activation of hICACC-1.

[8] = tested on: CF mice (CF knock-out mice and CF ΔF508 mice); conditions: po, 100 mg/kg
[9] = biological target: T1, murine chloride channel, mICACC-1 (Mus musculus, UniProt Q9D7Z6); test: Patch clamp chloride current, HEK293 cell expressing mICACC-1; type: cell-based; conditions: for Chloride Current (nA/pF): + ionomycin + Ca
T1 construct: expressed in transfected cells; host or cells: HEK293
T1 sequence (Q9D7Z6 22-913): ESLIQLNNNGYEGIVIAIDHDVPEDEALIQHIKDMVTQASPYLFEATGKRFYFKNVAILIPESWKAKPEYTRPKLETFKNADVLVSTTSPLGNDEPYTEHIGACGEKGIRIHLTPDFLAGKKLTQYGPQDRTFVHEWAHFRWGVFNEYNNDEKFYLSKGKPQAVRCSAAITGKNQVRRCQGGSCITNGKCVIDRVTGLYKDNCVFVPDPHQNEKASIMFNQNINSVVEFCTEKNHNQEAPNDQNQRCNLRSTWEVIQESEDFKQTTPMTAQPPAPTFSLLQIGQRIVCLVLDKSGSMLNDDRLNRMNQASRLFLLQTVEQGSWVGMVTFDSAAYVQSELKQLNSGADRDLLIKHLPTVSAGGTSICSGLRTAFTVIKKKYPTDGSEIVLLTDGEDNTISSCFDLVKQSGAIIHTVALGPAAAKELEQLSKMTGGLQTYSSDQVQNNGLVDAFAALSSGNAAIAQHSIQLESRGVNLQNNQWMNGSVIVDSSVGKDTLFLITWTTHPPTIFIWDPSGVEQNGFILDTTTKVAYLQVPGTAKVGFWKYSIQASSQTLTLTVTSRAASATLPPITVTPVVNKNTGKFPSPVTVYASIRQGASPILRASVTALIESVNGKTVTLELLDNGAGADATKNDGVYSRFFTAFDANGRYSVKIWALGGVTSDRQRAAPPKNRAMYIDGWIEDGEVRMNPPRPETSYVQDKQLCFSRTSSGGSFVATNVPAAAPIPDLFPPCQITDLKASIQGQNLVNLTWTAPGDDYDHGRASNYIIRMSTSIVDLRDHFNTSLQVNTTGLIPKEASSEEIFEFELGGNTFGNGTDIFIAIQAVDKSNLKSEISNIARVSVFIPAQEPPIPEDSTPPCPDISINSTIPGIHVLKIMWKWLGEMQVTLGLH
Protocol: A HEK293 cell transfected with a plasmid expressing a murine chloride channel, mICACC-1, was patch clamped and chloride current was measured over a range of voltages (V, left column) and the results are shown in Table 3 below. Each row lists currents invoked at a particular positive voltage in the absence (−) or presence (+) of ionomycin and calcium, and in the presence of an indicated concentration of diclofenac (μM). Substantial current was invoked by the addition of 2 μM ionomycin and 2 mM calcium-compare the first two columns-indicating activation of mICACC-1 by the ionomycin/calcium treatment. For example, at 100 mV of positive voltage, the chloride current was increased from 39 nA/pF to 105 nA/pF.

SMILES: O=C1OC(CC(=O)c2cccnc2Oc2cccc(Br)c2)c2ccccc21 (stereo not drawn) [Compound 14]
Est. LD50 (μM)(alamar Blue)* (H292 clone 15 cells): 16 µM

SMILES: O=C1OC(CC(=O)c2cccnc2Sc2ccccc2Cl)c2ccccc21 (stereo not drawn) [Compound 15]
IC50 ([1]; Homo sapiens, NCI-H292, 48 hours): 2.5 µM
Est. LD50 (μM)(alamar Blue)* (H292 clone 15 cells): 15 µM

SMILES: COC(=O)c1cccnc1Nc1cccc(C(F)(F)F)c1 [MSI 2213, Niflumic acid methyl ester]
ELLA [2]: −

SMILES: O=C1OC(CC(=O)c2cccnc2Nc2cccc(C(F)(F)F)c2)c2ccccc21 (stereo not drawn) [MSI 2216]
IC50 ([1]; 48 hours): 3 µM
IC50 ([2]; Table 2, ELLA): 5 µM
ELLA [2]: +
Est. LD50 (μM)(alamar Blue)* (H292 clone 15 cells): 32 µM
Inhibition of Muc5b Expression (Muc5b): +

SMILES: O=C(O)c1cccnc1Nc1cccc(C(F)(F)F)c1 [NFA, niflumic acid]
viability [4]: not affected; also recorded: did not effect their viability
eotaxin production (activated LHL4 cells): Significant inhibition; also recorded: blocks epithelial activation including chemokine production
PAS positive staining muco-glycoconjugates compared with untreated cells ([3]; NFA at 100 μM): significantly fewer positive staining muco-glycoconjugates
mucin production in the IL9 transgenic lungs (IL9 transgenic mice): decreased mucin production
serum IgE levels ([5]; 100 μg of NFA intra-tracheal, days 0-21, vs PBS): no effect
BAL lung eosinophilia ([5]; mouse, in vivo): suppress; also recorded: reduces antigen-induced lung eosinophilia in vivo
antigen-induced airway hyperresponsiveness ([5]; mouse, in vivo): suppress; also recorded: suppresses antigen-induced airway hyperresponsiveness

SMILES: COc1ccc2cc([C@H](C)C(=O)O)ccc2c1 [Naproxen]
Mucin production by activated Caco2 cells (activated Caco2 cells): ineffective

SMILES: CC1=C(CC(=O)O)c2cc(F)ccc2/C1=C\c1ccc([S+](C)[O-])cc1 (stereo not drawn) [Sulindac]
Mucin production by activated Caco2 cells (activated Caco2 cells): ineffective

SMILES: O=C1OC(OC(=O)c2cccnc2Nc2cccc(C(F)(F)F)c2)c2ccccc21 (stereo not drawn) [Talniflumate, talniflumate]
lung eosinophilia, number of eosinophilic cells by bronchoalveolar lavage ([6]; Talniflumate coated chow, sensitized mice vs standard chow): reduced the number of eosinophilic cells; also recorded: inhibition of lung eosinophilia
mucin staining (PAS) in lung ([6]; Talniflumate containing chow ad lib, Asp-sens mice vs regular chow): reduced mucin staining; also recorded: inhibition of mucin over production
lipoteichoic acid induction of MUC2 (luciferase, RLU) (MUC2 transcription): modulated
chloride current at positive voltage [7]: reduction in chloride current
PAS positive staining muco-glycoconjugates compared with untreated cells ([3]; talniflumate at 12.5, 25 or 50 μM): significantly fewer positive staining muco-glycoconjugates
Est. LD50 (μM)(alamar Blue)* (H292 clone 15 cells): 108 µM
body weight gained [8]: 8-12%

Second part, led by results:

Mucin production by activated Caco2 cells (activated Caco2 cells): inhibited
SMILES: O=C(O)c1ccccc1Nc1cccc(C(F)(F)F)c1 [Flufenamate]

Mucin production by activated Caco2 cells (activated Caco2 cells): partially
SMILES: Cc1ccc(Cl)c(Nc2ccccc2C(=O)O)c1Cl [Meclofenamate]

Mucin production by activated Caco2 cells (activated Caco2 cells): partially
SMILES: Cc1cccc(Nc2ccccc2C(=O)O)c1C [Mefenamate]
PAS positive staining muco-glycoconjugates compared with untreated cells ([3]; MFA at 125 or 250 μM): significantly fewer positive staining muco-glycoconjugates

Chloride Current (nA/pF) ([9]; 0 mV, diclofenac 5 μM): 20 nA/pF
Chloride Current (nA/pF) ([9]; 0 mV, diclofenac 20 μM): 20 nA/pF
Chloride Current (nA/pF) ([9]; 0 mV, diclofenac 50 μM): 19 nA/pF
Chloride Current (nA/pF) ([9]; 20 mV, diclofenac 5 μM): 36 nA/pF
Chloride Current (nA/pF) ([9]; 20 mV, diclofenac 20 μM): 34 nA/pF
Chloride Current (nA/pF) ([9]; 20 mV, diclofenac 50 μM): 33 nA/pF
Chloride Current (nA/pF) ([9]; 40 mV, diclofenac 5 μM): 53 nA/pF
Chloride Current (nA/pF) ([9]; 40 mV, diclofenac 20 μM): 51 nA/pF
Chloride Current (nA/pF) ([9]; 40 mV, diclofenac 50 μM): 48 nA/pF
Chloride Current (nA/pF) ([9]; 60 mV, diclofenac 5 μM): 72 nA/pF
Chloride Current (nA/pF) ([9]; 60 mV, diclofenac 20 μM): 69 nA/pF
Chloride Current (nA/pF) ([9]; 60 mV, diclofenac 50 μM): 66 nA/pF
Chloride Current (nA/pF) ([9]; 80 mV, diclofenac 5 μM): 92 nA/pF
Chloride Current (nA/pF) ([9]; 80 mV, diclofenac 20 μM): 88 nA/pF
Chloride Current (nA/pF) ([9]; 80 mV, diclofenac 50 μM): 85 nA/pF
Chloride Current (nA/pF) ([9]; 100 mV, diclofenac 5 μM): 115 nA/pF
Chloride Current (nA/pF) ([9]; 100 mV, diclofenac 20 μM): 109 nA/pF
Chloride Current (nA/pF) ([9]; 100 mV, diclofenac 50 μM): 106 nA/pF
inhibition of channel activity ([9]; diclofenac 5 μM to 50 μM, 2 μM ionomycin and 2 mM calcium): No inhibition
SMILES: O=C(O)Cc1ccccc1Nc1c(Cl)cccc1Cl [diclofenac]
